Results: patent EP0326134A1, “4-Amino-2,3-disubstituted-6,7-dihydro-5H-1-pyridine derivatives, process for their preparation and medicaments containing them” (NAUCHNO-ISSLEDOVATELSKY INSTITUT TEKHNOLOGII I BEZOPASNOSTI …, priority 1988, dated 1989)
Counter-ions that a name gives are not always drawn.

Experiments:
Samenleiter der Ratte = test: Contractile activity of smooth muscle: rat vas deferens; settings: Samenleiter der Ratte, n = 9
In short: (§1)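 Isolated rat uterus and vas deferens; effects of compounds on smooth-muscle contractile activity and on responses to acetylcholine, serotonin, adrenaline and KCl as agonists. Contraction amplitude and duration recorded mechanically.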

M-cholinrezeptoren = test: Radioligand displacement of 3H-Propyl-2-aminobenzylat in brain; format: binding, Kaninchens
Excerpt: (§2) Dies beweisen spezielle Radioligandenuntersuchungen an einzelnen erfindungsgemäßen Verbindungen (s. Tabelle 6).

[1] = system: Na -Durchlässigkeit der Membrane des Ranvier-Schnürringes; test: Na+ permeability of the node of Ranvier membrane, voltage clamp; parameters: species or system Frosches; settings: node of Ranvier, frog sciatic nerve fibres, voltage clamp; concentration giving 50 % block of ion permeability; read-out: Blockierung der Na^+-Durchlässigkeit der Membrane Ic50 (Mol)
In short: (§3)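 Frog sciatic nerve fibres studied at the node of Ranvier under voltage clamp, measuring membrane Na+ and K+ permeability.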

[2] = system: durch Skopolamin hervorgerufene Amnesie; test: Dark avoidance assay (passive avoidance), scopolamine-induced amnesia; format: in vivo, Mäusen; settings: mice, compound s.c. 5 min before learning, Skopolamin i.p. 30 min before
Uterus der Ratte = test: Contractile activity of smooth muscle: rat uterus; settings: n = 9; for Acetylcholin 1.10^-6 (Mol): Dauer, Min.: Uterus der Ratte (as head prints); for Serotonin 1.10^-6 (Mol): Dauer, Min.: Uterus der Ratte
In short: as §1

[3] = system: K -Durchlässigkeit der Membrane des Ranvier-Schnürringes; test: K+ permeability of the node of Ranvier membrane, voltage clamp; parameters: species or system Frosches; settings: node of Ranvier, frog sciatic nerve fibres, voltage clamp; concentration giving 50 % block of ion permeability; read-out: Blockierung der K^+-Durchlässigkeit der Membrane Ic50 (Mol)
In short: as §3

[4] = Acute toxicity, single intraperitoneal injection, probit analysis (LD50); format: in vivo, Mäusen; settings: mouse, in vivo, ip, mice, i.p., read-out: LD50
Excerpt: Ihre akute Toxizität wurde an Mäusen (einmalige intraperitoneale Injektion) nach der Methode der Probit-Analyse nach Zichtfield, Wilcoxon, t949 untersucht. In Tabelle 2 sind die Parameter der akuten Toxizität (LDso) angegeben, die eine mäßige Toxizität der erfindungsgemäßen Verbindungen belegen.

M2-Cholinrezeptoren = molecular target: T1, M2-Cholinrezeptoren (Oryctolagus cuniculus, UniProt G1TBX1); test: Radioligand displacement of 3H-Chinuklidin in heart; format: binding, Kaninchen
T1 construct: im Kaninchen-herzen (M2-Cholinre-zeptoren); from tissue; host or cells: rabbit heart
T1 sequence (G1TBX1 1-520): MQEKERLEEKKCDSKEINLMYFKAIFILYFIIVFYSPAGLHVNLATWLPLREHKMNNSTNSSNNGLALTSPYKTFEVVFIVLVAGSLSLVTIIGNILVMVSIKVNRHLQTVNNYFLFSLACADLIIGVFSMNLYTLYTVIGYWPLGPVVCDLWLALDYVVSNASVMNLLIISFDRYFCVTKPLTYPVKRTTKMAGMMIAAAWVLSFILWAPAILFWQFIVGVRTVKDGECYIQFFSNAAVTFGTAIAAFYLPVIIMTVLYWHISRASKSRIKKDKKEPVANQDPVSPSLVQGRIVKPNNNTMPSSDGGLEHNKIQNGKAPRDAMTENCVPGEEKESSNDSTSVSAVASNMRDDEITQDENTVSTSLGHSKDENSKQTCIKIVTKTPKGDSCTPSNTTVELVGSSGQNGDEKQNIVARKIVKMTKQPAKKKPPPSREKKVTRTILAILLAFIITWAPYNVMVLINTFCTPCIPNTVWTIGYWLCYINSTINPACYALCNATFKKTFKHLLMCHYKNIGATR
Excerpt: as §2

α2-Adrenorezeptoren = test: Radioligand displacement of 3H-clonidine in cerebral cortex; format: binding, Kaninchens
Excerpt: as §2

[5] = Side effects and CNS/behaviour: tremor (TD50), sedative and m-cholinomimetic effects; format: in vivo; settings: in vivo, toxic dose causing tremor in 50 % of the animals
Excerpt: Von Interesse ist der Einfluß der erfindungsgemäßen Verbindungen auf das ZNS und das Verhalten der Tiere.

[6] = system: Nerven-Muskel-Präparat von Mäusen (n.peroneus-m.extensor digitorum longus); test: Neuromuscular transmission in isolated nerve-muscle preparation (EPP, minEPP)
In short: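 Mouse peroneal nerve–extensor digitorum longus preparation, isolated and perfused with O2/CO2-gassed Lilly solution. EPPs and spontaneous minEPPs were recorded by magnetograph, then analysed by computer for frequency, amplitude and duration.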

[7] = Konzentration 1.10^-5 Mol, 10 µM
[8] = Konzentration 1.10^-6 Mol, 1 µM

With `Nc1c2c(nc3c1CCC3)CCCC2` [Verbindung 40, 9-Amino-2,3,5,6,7,8-hexahydro-1 H-cyclopenta(b)chinolinhydrochloridhydrat, reference compound] the “Adrenalin 1.10^-6: Dauer, Min.” value (Samenleiter der Ratte; Konzentration 1.10^-4 Mol) was 28±0.8 Min, the “Adrenalin 1.10^-6: Dauer, Min.” value (Samenleiter der Ratte; Konzentration 1.10^-5 Mol) was 25±0.6 Min and the “Verdrängung des 3H-Propyl-2-aminobenzylats im Gehirn des Kaninchens (M-cholinrezeptoren)” value (M-cholinrezeptoren; [7]) was 10. The “Verdrängung des 3H-Propyl-2-aminobenzylats im Gehirn des Kaninchens (M-cholinrezeptoren)” value (M-cholinrezeptoren; [8]) was 0, the IC50 [1] was 200 µM and the “Einfluß auf das Gedächtnis: Zahl der Tiere in %, bei denen die Skopolaminwirkung aufgehoben wurde” value [2] was 60%. The “Acetylcholin 1.10^-6 (Mol): Dauer, Min.” value (Uterus der Ratte; Konzentration 1.10^-4 Mol) was 30±0.9 Min, the “Acetylcholin 1.10^-6 (Mol): Dauer, Min.” value (Uterus der Ratte; Konzentration 1.10^-5 Mol) was 30±0.5 Min and the “Serotonin 1.10^-6 (Mol): Dauer, Min.” value (Uterus der Ratte; Konzentration 1.10^-4 Mol) was 30±0.5 Min. For the same compound, the “Serotonin 1.10^-6 (Mol): Dauer, Min.” value (Uterus der Ratte; Konzentration 1.10^-5 Mol) was 25±0.4 Min, the IC50 [3] was 450 µM and the LD50 [4] was 44 mg/kg. The “Verdrängung des 3H-Chinuklidins im Kaninchenherzen (M2-Cholinrezeptoren)” value (M2-Cholinrezeptoren; [7]) was 0, the “Verdrängung des 3H-Chinuklidins im Kaninchenherzen (M2-Cholinrezeptoren)” value (M2-Cholinrezeptoren; [8]) was 0 and the “Verdrängung des 3H-Clonidins in der Hirnrinde des Kaninchens (α2-Adrenorezeptoren)” value (α2-Adrenorezeptoren; [7]) was 10. The “Verdrängung des 3H-Clonidins in der Hirnrinde des Kaninchens (α2-Adrenorezeptoren)” value (α2-Adrenorezeptoren; [8]) was 0, the “α2-adrenoblockierende Wirkung” value (α2-Adrenorezeptoren; in words, from radioligand studies) was “fehlt jedoch praktisch” and the TD50 [5] was 23.2 mg/kg. For the same compound, the “Stimulierung der Nerven-Muskelübertragung, in % der Amplitude: EPP” value ([6]; EPP = Endplattenpotential) was 55% and the “Stimulierung der Nerven-Muskelübertragung, in % der Amplitude: minEPP” value ([6]; minEPP) was 100%.
